# From US9663496B2, “AMPK-activating heterocyclic compounds and methods for using the same” (Rigel Pharmaceuticals, Inc., priority 2010, dated 2017)
# Biological target: AMPK
# Assay: AMPK activation, enzyme-linked immunosorbent assay
# Type: biochemical
# Details: EC50 for AMPK activation, ELISA
# Description: Compounds were assayed for their ability to activate AMPK using an enzyme-linked immunosorbent assay. Reagents and procedures for measuring AMPK activation are well known and kits for AMPK activation assays are commercially available.
row,EC50 [µM],SMILES
1,1 to 5,"O=C(NC1CCN(CC2CCCCC2)CC1)c1ccc(C(=O)N2CCN(Cc3ccc(F)cc3)CC2)cn1 [Compound 13, N-(1-(cyclohexylmethyl)piperidin-4-yl)-5-(4-(4-fluorobenzyl)piperazine-1-carbonyl)picolinamide]"
2,1 to 5,"N#Cc1ccc(CN2CCC3(CCN(C(=O)c4ccc(C(=O)N5CCN(Cc6ccc(F)cc6)CC5)cn4)CC3)C2)cc1 [Compound 15, 4-((8-(5-(4-(4-fluorobenzyl)piperazine-1-carbonyl)picolinoyl)-2,8-diazaspiro[4.5]decan-2-yl)methyl)benzonitrile]"
3,0.5 to 1,"O=C(Nc1ccc(Br)cc1)c1ccc(C(=O)N2CCN(Cc3ccc(F)cc3)CC2)cn1 [Compound 28, N-(4-bromophenyl)-5-(4-(4-fluorobenzyl)piperazine-1-carbonyl)picolinamide]"
4,< 0.5,"N#Cc1ccc(CN2CCC3(CC2)CCN(c2ccc(C(=O)N4CCN(Cc5ccc(F)cc5)CC4)cn2)C3)cc1 [Compound 31, 4-((2-(5-(4-(4-fluorobenzyl)piperazine-1-carbonyl)pyridin-2-yl)-2,8-diazaspiro[4.5]decan-8-yl)methyl)benzonitrile]"
5,1 to 5,"O=C(c1ccc(Nc2ccc(Oc3ccccc3)cc2)nc1)N1CCN(Cc2ccc(F)cc2)CC1 [Compound 34, (4-(4-fluorobenzyl)piperazin-1-yl)(6-(4-phenoxyphenylamino)pyridin-3-yl)methanone]"
6,5 to 10,"O=C(c1ccc(Nc2ccc(-c3ccccc3)cc2)nc1)N1CCN(Cc2ccc(F)cc2)CC1 [Compound 37, (6-(4-phenylphenylamino)pyridin-3-yl)(4-(4-fluorobenzyl)piperazin-1-yl)methanone]"
7,< 0.5,"O=C(NC1CCN(Cc2ccc(Cl)cc2)CC1)c1ccc(C(=O)N2CCN(Cc3ccc(F)cc3)CC2)cn1 [Compound 52, N-(1-(4-chlorobenzyl)piperidin-4-yl)-5-(4-(4-fluorobenzyl)piperazine-1-carbonyl)picolinamide]"
8,< 0.5,"COc1ccc(Oc2ccc(NC(=O)c3ccc(C(=O)N4CCN(Cc5ccc(F)cc5)CC4)cn3)cc2)cc1 [Compound 54, 5-(4-(4-fluorobenzyl)piperazine-1-carbonyl)-N-(4-(4-methoxyphenoxy)phenyl)picolinamide]"
9,< 0.5,"O=C(NC1CCN(Cc2ccccc2)CC1)c1ccc(C(=O)N2CCN(Cc3ccccc3)CC2)cn1 [Compound 72, 5-(4-benzylpiperazine-1-carbonyl)-N-(1-benzylpiperidin-4-yl)picolinamide]"
10,5 to 10,"O=C(c1ccc(C(=O)N2CCN(Cc3ccccc3)CC2)nc1)N1CCN(Cc2ccccc2)CC1 [Compound 73, pyridine-2,5-diylbis((4-benzylpiperazin-1-yl)methanone)]"
11,< 0.5,"O=C(NC1CCN(Cc2ccccc2)CC1)c1ccc(C(=O)N2CCN(Cc3ccccc3)CC2)nc1 [Compound 74, 6-(4-benzylpiperazine-1-carbonyl)-N-(1-benzylpiperidin-4-yl)nicotinamide]"
12,1 to 5,"N#Cc1ccc(CN2CCC(NC(=O)c3ccc(C(=O)N4CCN(C(=O)c5ccc(C(=O)NC6CCN(Cc7ccc(C#N)cc7)CC6)nc5)CC4)cn3)CC2)cc1 [Compound 75, 5,5′-(piperazine-1,4-diylbis(oxomethylene)) bis(N-(1-(4-cyanobenzyl)piperidin-4-yl)picolinamide)]"
13,< 0.5,"N#Cc1ccc(CN2CCC(NC(=O)c3ccc(C(=O)N4CCN(C(=O)c5ccc(F)cc5)CC4)cn3)CC2)cc1 [Compound 76, N-(1-(4-cyanobenzyl)piperidin-4-yl)-5-(4-(4-fluorobenzoyl)piperazine-1-carbonyl)picolinamide]"
14,< 0.5,"COc1ccc(C(=O)N2CCN(C(=O)c3ccc(C(=O)NC4CCN(Cc5ccc(C#N)cc5)CC4)nc3)CC2)cc1 [Compound 77, N-(1-(4-cyanobenzyl)piperidin-4-yl)-5-(4-(4-methoxybenzoyl)piperazine-1-carbonyl)picolinamide]"
15,< 0.5,"N#Cc1ccc(CN2CCC(NC(=O)c3ccc(C(=O)N4CCN(S(=O)(=O)c5ccc(F)cc5)CC4)cn3)CC2)cc1 [Compound 78, N-(1-(4-cyanobenzyl)piperidin-4-yl)-5-(4-(4-fluorophenylsulfonyl)piperazine-1-carbonyl)picolinamide]"
16,0.5 to 1,"COc1ccc(S(=O)(=O)N2CCN(C(=O)c3ccc(C(=O)NC4CCN(Cc5ccc(C#N)cc5)CC4)nc3)CC2)cc1 [Compound 79, N-(1-(4-cyanobenzyl)piperidin-4-yl)-5-(4-(4-methoxyphenylsulfonyl)piperazine-1-carbonyl)picolinamide]"
17,1 to 5,"N#Cc1ccc(CN2CCC(NC(=O)c3ccc(C(=O)N4CCN(C(=O)c5ccccc5)CC4)cn3)CC2)cc1 [Compound 80, 5-(4-benzoylpiperazine-1-carbonyl)-N-(1-(4-cyanobenzyl)piperidin-4-yl)picolinamide]"
18,0.5 to 1,"CC(C)(C)C(=O)N1CCN(C(=O)c2ccc(C(=O)NC3CCN(Cc4ccc(C#N)cc4)CC3)nc2)CC1 [Compound 81, N-(1-(4-cyanobenzyl)piperidin-4-yl)-5-(4-pivaloylpiperazine-1-carbonyl)picolinamide]"
19,0.5 to 1,"N#Cc1ccc(CN2CCC(NC(=O)c3ccc(C(=O)N4CCN(S(=O)(=O)c5ccccc5)CC4)cn3)CC2)cc1 [Compound 82, N-(1-(4-cyanobenzyl)piperidin-4-yl)-5-(4-(phenylsulfonyl)piperazine-1-carbonyl)picolinamide]"
20,> 10,"N#Cc1ccc(CN2CCC(NC(=O)c3ccc(C(=O)N4CCN(C5CCOCC5)CC4)cn3)CC2)cc1 [Compound 83, N-(1-(4-cyanobenzyl)piperidin-4-yl)-5-(4-(tetrahydro-2H-pyran-4-yl)piperazine-1-carbonyl)picolinamide]"
21,1 to 5,"CC(C)N1CCN(C(=O)c2ccc(C(=O)NC3CCN(Cc4ccc(C#N)cc4)CC3)nc2)CC1 [Compound 84, N-(1-(4-cyanobenzyl)piperidin-4-yl)-5-(4-isopropylpiperazine-1-carbonyl)picolinamide]"
22,1 to 5,"Cc1cc(CN2CCN(C(=O)c3ccc(C(=O)NC4CCN(Cc5ccccc5)CC4)nc3)CC2)no1 [Compound 85, N-(1-benzylpiperidin-4-yl)-5-(4-((5-methylisoxazol-3-yl)methyl)piperazine-1-carbonyl)picolinamide]"
23,1 to 5,"N#Cc1ccc(CN2CCC(NC(=O)c3cccc(C(=O)NC4CCN(Cc5ccc(C#N)cc5)CC4)n3)CC2)cc1 [Compound 86, N2,N6-bis(1-(4-cyanobenzyl)piperidin-4-yl)pyridine-2,6-dicarboxamide]"
24,1 to 5,"O=C(NC1CCN(Cc2ccc(F)cc2)CC1)c1cccc(C(=O)NC2CCN(Cc3ccc(F)cc3)CC2)n1 [Compound 87, N2,N6-bis(1-(4-fluorobenzyl)piperidin-4-yl)pyridine-2,6-dicarboxamide]"
25,1 to 5,"O=C(c1ccc(C(=O)N2CCN(CCc3ccccc3)CC2)nc1)N1CCN(Cc2ccc(F)cc2)CC1 [Compound 88, (4-(4-fluorobenzyl)piperazin-1-yl)(6-(4-phenethylpiperazine-1-carbonyl)pyridin-3-yl)methanone]"
26,1 to 5,"N#Cc1ccc(CN2CCC(NC(=O)c3ccc(C(=O)N4CCN(C(=O)C5CCCCC5)CC4)cn3)CC2)cc1 [Compound 89, N-(1-(4-cyanobenzyl)piperidin-4-yl)-5-(4-(cyclohexanecarbonyl)piperazine-1-carbonyl)picolinamide]"
